25 compounds from US20190367516A1 (Bayer Pharma Aktiengesellschaft, priority 2015, published 2019) can be followed below.

For orientation: EC50 means the concentration that produces a half-maximal response. The low end stands for a more potent agent, the high end for a less potent agent.

The target of this assay is T1, human M2 receptor (Homo sapiens, UniProt P08172).
T1 sequence (P08172 1-466): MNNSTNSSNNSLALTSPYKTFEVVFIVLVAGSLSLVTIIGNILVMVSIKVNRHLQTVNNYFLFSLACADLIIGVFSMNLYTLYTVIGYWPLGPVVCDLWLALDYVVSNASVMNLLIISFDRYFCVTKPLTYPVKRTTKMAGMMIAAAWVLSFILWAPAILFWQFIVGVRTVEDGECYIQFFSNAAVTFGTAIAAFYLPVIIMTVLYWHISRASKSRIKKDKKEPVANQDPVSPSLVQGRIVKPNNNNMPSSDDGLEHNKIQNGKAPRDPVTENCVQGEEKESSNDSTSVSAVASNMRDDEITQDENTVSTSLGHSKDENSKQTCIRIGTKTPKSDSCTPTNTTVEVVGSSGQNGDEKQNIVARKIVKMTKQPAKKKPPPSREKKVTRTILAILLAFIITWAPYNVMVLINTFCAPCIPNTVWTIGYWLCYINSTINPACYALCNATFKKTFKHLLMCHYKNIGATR
To be noted: for Efficiency: boosting of the acetylcholine effect at EC20 acetylcholine concentration; for Emax: read-out: Efficiency, boosting of the acetylcholine effect at EC20 acetylcholine concentration.

Where [1] appears, read: Receptor activity EC50, allosteric potency at EC20 acetylcholine, M2-GIRK1/4 reporter cells, in some cases mean of two or more determinations.
The mark [2] stands for this setting: Receptor activity EC50, M2-GIRK1/4 activation test, acetylcholine at EC20, allosteric potency, in some cases mean values from two or more determinations.

Read-outs that look alike come from different tables or passages of the source.

As for `CC[C@@H](NC(=O)c1cn(-c2ccc(F)cc2F)c2nc(N3CC(C)NC3=O)ccc2c1=O)C(F)(F)F` (single isomer, unassigned) [Example 433], the 50% effective concentration (EC50) under setting [1] worked out at 170 nM. For the same compound, the Efficiency (M2-GIRK1/4 reporter cells) stood at 100.0%.
On to `O=C(NC(c1ccccc1Cl)C(F)(F)F)c1cn(-c2ccccc2F)c2nc(N3CCC(O)C3=O)ccc2c1=O` (single isomer, unassigned) [Example 290], for which, under setting [2], the EC50 was 312 nM.
On to `CC[C@@H](NC(=O)c1cn(-c2c(F)cccc2F)c2nc(N3CCC(C)(O)C3)ccc2c1=O)C(F)(F)F` (single isomer, unassigned) [Example 277], for which the concentration giving a half-maximal response (EC50) under setting [2] is 78 nM. This EC50 is about 4-fold lower than that of the compound before.
For `CN(C)c1ccc2c(=O)c(C(=O)NC(C(F)(F)F)C(F)(F)F)cn(-c3ccc(F)cc3F)c2n1` [Example 149, 1-(2,4-Difluorophenyl)-7-(dimethylamino)-N-(1,1,1,3,3,3-hexafluoropropan-2-yl)-4-oxo-1,4-dihydro-1,8-naphthyridine-3-carboxamide], a half-maximal effect under setting [2] (EC50) was put at 85 nM. This EC50 and that of the compound before are within 1.5-fold of each other.
As for `CC[C@@H](NC(=O)c1cn(-c2ccc(F)cc2F)c2nc(N3CCC(C)(O)C3=O)ccc2c1=O)C(F)(F)F` (single isomer, unassigned) [Example 196], it took 137 nM to reach a half-maximal effect under setting [2] (EC50). This EC50 lies about 1.6-fold higher than the previous one.
Under setting [2], `C[C@H](NC(=O)c1cn(-c2c(F)cc(F)cc2F)c2nc(N3CC4CC4(O)C3)ccc2c1=O)C(F)(F)F` (single isomer, unassigned) [Example 317] returned an EC50 of 26 nM. This EC50 is about 5.3-fold lower than that of the compound before.
Compound `CC(C)Nc1ccc2c(=O)c(C(=O)NC34CC5CC(CC(C5)C3)C4)cn(-c3ccc(F)cc3F)c2n1` [Example 158, 1-(2,4-Difluorophenyl)-4-oxo-7-(propan-2-ylamino)-N-(tricyclo[3.3.1.1^3,7]dec-1-yl)-1,4-dihydro-1,8-naphthyridine-3-carboxamide] displayed an EC50 under setting [2] of 184 nM.
Compound `COC(=O)N1CCN(c2ccc3c(=O)c(C(=O)NC45CC(C4)C5)cn(-c4c(F)cc(F)cc4F)c3n2)CC1` [Example 633, Methyl 4-[6-(bicyclo[1.1.1]pent-1-ylcarbamoyl)-5-oxo-8-(2,4,6-trifluorophenyl)-5,8-dihydro-1,8-naphthyridin-2-yl]piperazine-1-carboxylate] showed an EC50 under setting [1] of 52 nM. In addition, the Emax (M2-GIRK1/4 reporter cells) amounted to 93.8%.
The compound `CC(C)C[C@@H](NC(=O)c1cn(-c2c(F)cc(F)cc2F)c2nc(N3C[C@@H](O)CC3=O)ccc2c1=O)C(F)(F)F` [Example 658, 7-[(4S)-4-Hydroxy-2-oxopyrrolidin-1-yl]-4-oxo-N-[(2R)-1,1,1-trifluoro-4-methylpentan-2-yl]-1-(2,4,6-trifluorophenyl)-1,4-dihydro-1,8-naphthyridine-3-carboxamide] returned an EC50 under setting [1] of 6 nM. The Emax (M2-GIRK1/4 reporter cells) came out at 100%.
For the compound `CCC(NC(=O)c1cn(-c2ccc(F)cc2F)c2nc(N3CC(CO)C3)ccc2c1=O)C(F)(F)F` (racemic) [Example 26, rac-1-(2,4-Difluorophenyl)-7-[3-(hydroxymethyl)azetidin-1-yl]-4-oxo-N-[1,1,1-trifluorobutan-2-yl]-1,4-dihydro-1,8-naphthyridine-3-carboxamide], the response under setting [2] was half-maximal at 164 nM (EC50).
Take `CC(NC(=O)c1cn(-c2ccc(F)cc2F)c2nc(N3C[C@@H](O)CC3=O)ccc2c1=O)c1c(F)cccc1F` (single isomer, unassigned) [Example 215]: the EC50 under setting [2] amounted to 178 nM.
Under setting [1], `O=C(NC(CC(F)(F)F)C(F)(F)F)c1cn(-c2c(F)cc(F)cc2F)c2nc(N3C[C@@H](O)[C@H](O)C3)ccc2c1=O` (stereo partly drawn) [Example 545, 7-[(3R,4R)-3,4-Dihydroxypyrrolidin-1-yl]-N-[1,1,1,4,4,4-hexafluorobutan-2-yl]-4-oxo-1-(2,4,6-trifluorophenyl)-1,4-dihydro-1,8-naphthyridine-3-carboxamide] came in with an EC50 of 8 nM. Besides, the Emax (M2-GIRK1/4 reporter cells) is 99%.
`O=C(Nc1c(Cl)cccc1Cl)c1cn(-c2ccc(F)cc2F)c2nc(N3CC4CC4(O)C3)ccc2c1=O` (racemic) [Example 597, N-(2,6-Dichlorophenyl)-1-(2,4-difluorophenyl)-7-[1-hydroxy-3-azabicyclo[3.1.0]hex-3-yl]-4-oxo-1,4-dihydro-1,8-naphthyridine-3-carboxamide] registered an EC50 under setting [1] of 21 nM. Moreover, the Emax (M2-GIRK1/4 reporter cells) is 95.5%.
The compound `CC(NC(=O)c1cn(-c2ccc(F)cc2F)c2nc(N3C[C@@H](O)CC3=O)ccc2c1=O)C(F)(F)C(F)(F)F` (single isomer, unassigned) [Example 623] gave an EC50 under setting [1] of 67 nM. For the setting “M2-GIRK1/4 reporter cells”, the Emax was found to be 97%.
`CC(NC(=O)c1cn(-c2c(F)cc(F)cc2F)c2nc(N3CCNC3=O)ccc2c1=O)(C(F)(F)F)C(F)(F)F` [Example 581, N-(1,1,1,3,3,3-Hexafluoro-2-methylpropan-2-yl)-4-oxo-7-(2-oxoimidazolidin-1-yl)-1-(2,4,6-trifluorophenyl)-1,4-dihydro-1,8-naphthyridine-3-carboxamide] displayed an EC50 under setting [1] of 14 nM. For the same compound, the Emax (M2-GIRK1/4 reporter cells) was found to be 98%.
Turning to `CCC(NC(=O)c1cn(-c2ccc(F)cc2F)c2nc(N(C)C)ccc2c1=O)C(F)(F)F` (racemic) [Example 146, rac-1-(2,4-Difluorophenyl)-7-(dimethylamino)-4-oxo-N-(1,1,1-trifluorobutan-2-yl)-1,4-dihydro-1,8-naphthyridine-3-carboxamide], under setting [2], the EC50 worked out at 26 nM.
Under setting [1], `C[C@H](NC(=O)c1cn(-c2c(F)cc(F)cc2F)c2nc(N3C[C@@H](O)CC3=O)ccc2c1=O)C1CC1` [Example 478, N-[(1 S)-1-Cyclopropylethyl]-7-[(4S)-4-hydroxy-2-oxopyrrolidin-1-yl]-4-oxo-1-(2,4,6-trifluorophenyl)-1,4-dihydro-1,8-naphthyridine-3-carboxamide] came in with an EC50 of 24 nM. In addition, the Emax (M2-GIRK1/4 reporter cells) was determined as 100%.
In turn, `CN(CCF)c1ccc2c(=O)c(C(=O)NC34CC5CC(CC(C5)C3)C4)cn(-c3ccc(F)cc3F)c2n1` [Example 101, 1-(2,4-Difluorophenyl)-7-[(2-fluoroethyl)(methyl)amino]-4-oxo-N-(tricyclo[3.3.1.1^3,7]dec-1-yl)-1,4-dihydro-1,8-naphthyridine-3-carboxamide] returned an EC50 under setting [2] of 26 nM. That is a double-digit nanomolar value.
As for `CN(CCF)c1ccc2c(=O)c(C(=O)NC34CC5CC(CC(F)(C5)C3)C4)cn(-c3ccc(F)cc3F)c2n1` [Example 102, 1-(2,4-Difluorophenyl)-7-[(2-fluoroethyl)(methyl)amino]-N-(3-fluorotricyclo[3.3.1.1^3,7]dec-1-yl)-4-oxo-1,4-dihydro-1,8-naphthyridine-3-carboxamide], the half-maximal effective concentration (EC50) under setting [2] was 31 nM.
For the compound `CC(C)C[C@@H](NC(=O)c1cn(-c2c(F)cc(F)cc2F)c2nc(N3CCNC3=O)ccc2c1=O)C(F)(F)F` [Example 580, 4-Oxo-7-(2-oxoimidazolidin-1-yl)-N-[(2R)-1,1,1-trifluoro-4-methylpentan-2-yl)-1-(2,4,6-trifluorophenyl)-1,4-dihydro-1,8-naphthyridine-3-carboxamide], the EC50 under setting [1] worked out at 14 nM. Moreover, under “M2-GIRK1/4 reporter cells”, the Emax was 100%.
In the case of `O=C(N[C@H](C(F)F)C1CC1)c1cn(-c2c(F)cc(F)cc2F)c2nc(N3C[C@@H](O)CC3=O)ccc2c1=O` [Example 435, N-[(1 S)-1-Cyclopropyl-2,2-difluoroethyl]-7-[(4S)-4-hydroxy-2-oxopyrrolidin-1-yl]-4-oxo-1-(2,4,6-trifluorophenyl)-1,4-dihydro-1,8-naphthyridine-3-carboxamide], the midpoint of the response under setting [1], the EC50, lay at 84 nM. Further, the Emax (M2-GIRK1/4 reporter cells) turned out to be 100%.
As to `CC[C@@H](NC(=O)c1cn(-c2c(Cl)cc(F)cc2Cl)c2nc(N3C[C@@H](O)[C@H](O)C3)ccc2c1=O)C(F)(F)F` [Example 643, 1-(2,6-Dichloro-4-fluorophenyl)-7-[(3R,4R)-3,4-dihydroxypyrrolidin-1-yl]-4-oxo-N-[(2R)-1,1,1-trifluorobutan-2-yl]-1,4-dihydro-1,8-naphthyridine-3-carboxamide], under setting [1], it took 73 nM to reach a half-maximal effect (EC50). Further, the Emax (M2-GIRK1/4 reporter cells) turned out to be 92%.
`O=C(N[C@@H](C1CC1)C(F)(F)F)c1cn(-c2c(F)cc(F)cc2F)c2nc(N3CC[C@@H](O)[C@H](O)C3)ccc2c1=O` (single isomer, unassigned) [Example 617, N-[(1 S)-1-Cyclopropyl-2,2,2-trifluoroethyl]-7-[trans-3,4-dihydroxypiperidin-1-yl]-4-oxo-1-(2,4,6-trifluorophenyl)-1,4-dihydro-1,8-naphthyridine-3-carboxamide] gave a half-maximal effective concentration (EC50) under setting [1] of 96 nM. The Efficiency (M2-GIRK1/4 reporter cells) came out at 98.0%.
In turn, `CC(C)C[C@H](NC(=O)c1cn(-c2c(F)cc(F)cc2F)c2nc(N3C[C@@H](O)CC3=O)ccc2c1=O)C(F)(F)F` [Example 525, 7-[(4S)-4-Hydroxy-2-oxopyrrolidin-1-yl]-oxo-N-[(2S)-1,1,1-trifluoro-4-methylpentan-2-yl]-1-(2,4,6-trifluorophenyl)-1,4-dihydro-1,8-naphthyridine-3-carboxamide] had a concentration giving a half-maximal response (EC50) under setting [1] of 5 nM. Also, for the setting “M2-GIRK1/4 reporter cells”, the Emax amounted to 100%.
With `O=C(NC12CC3CC(CC(C3)C1)C2)c1cn(-c2ccc(F)cc2F)c2nc(N3CCCC(O)C3)ccc2c1=O` (racemic) [Example 14, rac-1-(2,4-Difluorophenyl)-7-(3-hydroxypiperidin-1-yl)-4-oxo-N-(tricyclo[3.3.1.1^3,7]dec-1-yl)-1,4-dihydro-1,8-naphthyridine-3-carboxamide], under setting [2], the response was half-maximal at 82 nM (EC50).
